Our source for the IC50 values is PMC12015381, “Target Agnostic Photoaffinity Labelling by Sulfonylhydrazones” (Angewandte Chemie (International Ed. in English), 2025).

Assay [1] addresses T1, STAT5b (Signal transducer and activator of transcription 5b) (Homo sapiens, UniProt P51692).
T1 sequence (P51692 1-787): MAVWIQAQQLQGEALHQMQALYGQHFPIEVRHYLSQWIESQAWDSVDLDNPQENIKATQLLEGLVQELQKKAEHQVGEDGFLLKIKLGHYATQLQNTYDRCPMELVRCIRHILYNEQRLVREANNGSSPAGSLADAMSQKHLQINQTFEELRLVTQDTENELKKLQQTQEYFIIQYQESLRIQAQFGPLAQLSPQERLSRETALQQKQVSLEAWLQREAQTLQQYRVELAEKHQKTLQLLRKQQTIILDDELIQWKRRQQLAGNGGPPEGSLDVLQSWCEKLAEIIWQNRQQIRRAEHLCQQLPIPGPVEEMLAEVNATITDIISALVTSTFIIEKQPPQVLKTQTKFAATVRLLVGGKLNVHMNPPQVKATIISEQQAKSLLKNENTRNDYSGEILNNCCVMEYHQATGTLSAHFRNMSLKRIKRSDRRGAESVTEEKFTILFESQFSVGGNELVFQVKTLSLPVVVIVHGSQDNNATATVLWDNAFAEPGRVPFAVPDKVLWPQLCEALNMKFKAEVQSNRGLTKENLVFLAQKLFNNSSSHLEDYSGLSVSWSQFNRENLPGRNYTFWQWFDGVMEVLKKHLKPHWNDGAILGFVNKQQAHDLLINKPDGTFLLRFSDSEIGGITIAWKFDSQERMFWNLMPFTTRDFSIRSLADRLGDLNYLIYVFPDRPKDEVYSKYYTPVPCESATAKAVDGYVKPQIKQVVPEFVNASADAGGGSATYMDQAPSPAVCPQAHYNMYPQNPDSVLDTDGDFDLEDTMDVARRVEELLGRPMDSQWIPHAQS
The assay can be described thus: covalent photolabelling by tryptic digestion and LC-MS/MS; STAT5b inhibition assay with irradiation (no inhibition under […] without irradiation). The format is binding.

Assay [2] has as its target acetylcholine esterase (AChE) (Electrophorus electricus, UniProt O42275). Description: biochemical enzyme inhibition assay after photoactivation at […] nm (no inhibition without irradiation); covalent labelling by enzymatic digestion and MS.

Sequence of acetylcholine esterase (AChE) (O42275 24-633): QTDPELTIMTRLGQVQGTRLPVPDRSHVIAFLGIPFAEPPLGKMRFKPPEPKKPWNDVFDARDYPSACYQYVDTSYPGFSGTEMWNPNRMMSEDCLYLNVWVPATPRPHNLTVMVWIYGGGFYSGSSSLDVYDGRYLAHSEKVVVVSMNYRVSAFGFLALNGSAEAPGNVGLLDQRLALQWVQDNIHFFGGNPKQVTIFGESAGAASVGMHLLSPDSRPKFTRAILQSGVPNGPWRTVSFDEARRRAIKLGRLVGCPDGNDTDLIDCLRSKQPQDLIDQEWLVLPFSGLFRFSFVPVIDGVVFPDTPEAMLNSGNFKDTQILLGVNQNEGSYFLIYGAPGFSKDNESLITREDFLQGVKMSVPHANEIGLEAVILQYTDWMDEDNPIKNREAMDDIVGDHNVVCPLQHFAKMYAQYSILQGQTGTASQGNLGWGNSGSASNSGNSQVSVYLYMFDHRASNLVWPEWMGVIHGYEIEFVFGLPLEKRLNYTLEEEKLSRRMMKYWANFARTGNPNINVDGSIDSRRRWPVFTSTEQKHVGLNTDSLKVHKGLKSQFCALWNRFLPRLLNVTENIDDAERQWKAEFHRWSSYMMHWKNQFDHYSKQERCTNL

For the molecule `O=c1c(/C=N/NS(=O)(=O)c2cccnc2)coc2ccccc12` [compound 10, 10], the IC50 in assay [1] was 24.1 µM.
In assay [2], `COc1cc2c(cc1OC)C(=NNS(=O)(=O)c1ccc(C)cc1)C(CC1CCN(Cc3ccccc3)CC1)C2` (centres unmarked) [compound 12, donepezil-tosylhydrazone] showed a concentration for half-maximal inhibition (IC50) of 0.379 µM.

What is called IC50 is the concentration at which inhibition is half-maximal.
